The assay deals with L1210 leukemia ip in BDF1 mice, survival T/C. Briefly: NCI In Vivo Anticancer Drug Screen. Data for tumor model L1210 Leukemia (intraperitoneal) in B6D2F1 (BDF1) mice. The following applies: endpoint: mean survival time, higher = longer survival. The method, boiled down: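 In this screen, tumor-bearing mice given compound are compared to those given vehicle, and their survival values are reported as a treated-to-control quotient.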

[1] abbreviates: dose: 100.0 mg/kg/injection, schedule: Q04DX003 (ip), vehicle: carboxymethylcellulose (CMC).
Where [2] appears, read: dose: 200.0 mg/kg/injection, schedule: Q04DX003 (ip), vehicle: carboxymethylcellulose (CMC).
The mark [3] stands for this setting: dose: 100.0 mg/kg/injection, schedule: Q04DX003 (ip), vehicle: saline.

Molecules are shown by their SMILES. Where “and” joins values, the source holds several entries; their conditions need not be identical. Identical values can stand only once. Inconclusive results and toxic doses are left out.

This note sets out measurements from PubChem BioAssay AID248 (DTP/NCI, 2004).

For the compound `CCn1c(=O)n(C)c(=O)n1C(=O)c1ccccc1`, the T/C reads like this: under setting [1], 102 % of control; under setting [2], 104 % of control; (dose: 400.0 mg/kg/injection, schedule: Q04DX003 (ip), vehicle: carboxymethylcellulose (CMC)) 109 % of control.

For `O=C(O)C(Cc1cccs1)Cc1cccs1`, the T/C is 120 % of control (dose: 50.0 mg/kg/injection, schedule: Q04DX003 (ip), vehicle: carboxymethylcellulose (CMC)); 104 % of control under setting [1]; 108 % of control under setting [2].

For `NC1(CO)COC(c2ccccc2)OC1` (stereo unspecified), the T/C is 102 % of control (dose: 12.5 mg/kg/injection, schedule: Q01DX009 (ip), vehicle: saline); 102 % of control (dose: 12.5 mg/kg/injection, schedule: Q04DX003 (ip), vehicle: saline); 94 % of control (dose: 25.0 mg/kg/injection, schedule: Q01DX009 (ip), vehicle: saline); 96 % of control (dose: 25.0 mg/kg/injection, schedule: Q04DX003 (ip), vehicle: saline); 96 % of control and 104 % of control (dose: 50.0 mg/kg/injection, schedule: Q01DX009 (ip), vehicle: saline); 105 % of control (dose: 50.0 mg/kg/injection, schedule: Q04DX003 (ip), vehicle: saline). In addition, the T/C is 96 % of control (dose: 100.0 mg/kg/injection, schedule: Q01DX009 (ip), vehicle: saline sonified); 112 % of control (dose: 100.0 mg/kg/injection, schedule: Q01DX009 (ip), vehicle: saline); 107 % of control and 110 % of control under setting [3].

Regarding `CCc1ccc(N=Nc2ccc(Br)cc2)cc1`, the T/C (dose: 100.0 mg/kg/injection, schedule: Q01DX001 (ip), vehicle: carboxymethylcellulose (CMC)) was 93 % of control; the T/C (dose: 200.0 mg/kg/injection, schedule: Q01DX001 (ip), vehicle: carboxymethylcellulose (CMC)) is 98 % of control; the T/C (dose: 400.0 mg/kg/injection, schedule: Q01DX001 (ip), vehicle: carboxymethylcellulose (CMC)) was 98 % of control.

For the compound `O=P(Cc1ccccc1)(N1CCOCC1)N1CCOCC1`, the T/C was 100 % of control under setting [3]; 93 % of control (dose: 200.0 mg/kg/injection, schedule: Q04DX003 (ip), vehicle: saline); 104 % of control (dose: 400.0 mg/kg/injection, schedule: Q04DX003 (ip), vehicle: saline).

Turning to `COc1cc(NS(C)(=O)=O)ccc1Nc1c2ccc(Cl)cc2nc2c(OC)cccc12`, the T/C by setting is: (dose: 6.25 mg/kg/injection, schedule: Q01DX009 (ip), vehicle: water) 155 % of control; (dose: 12.5 mg/kg/injection, schedule: Q01DX009 (ip), vehicle: water) 98 % of control; (dose: 13.0 mg/kg/injection, schedule: Q04DX003 (ip), vehicle: saline with Tween-80) 155 % of control; (dose: 20.0 mg/kg/injection, schedule: Q04DX003 (ip), vehicle: saline with Tween-80) 247 % of control; (dose: 29.0 mg/kg/injection, schedule: Q04DX003 (ip), vehicle: saline with Tween-80) 253 % of control; (dose: 30.0 mg/kg/injection, schedule: Q04DX003 (ip), vehicle: saline with Tween-80) 296 % of control. Moreover, the T/C by setting is: (dose: 44.0 mg/kg/injection, schedule: Q04DX003 (ip), vehicle: saline with Tween-80) 260 % of control; (dose: 66.0 mg/kg/injection, schedule: Q04DX003 (ip), vehicle: saline with Tween-80) 153 % of control; (dose: 100.0 mg/kg/injection, schedule: Q04DX003 (ip), vehicle: saline with Tween-80) 89 % of control.

For `CC(C)=CCN1CCC2(C)c3cc(O)ccc3CC1C2C` (stereo unspecified), the T/C (dose: 15.62 mg/kg/injection, schedule: Q04DX003 (ip), vehicle: Klucel (hydroxypropylcellulose) (HPC)) was 96 % of control; the T/C (dose: 25.0 mg/kg/injection, schedule: Q01DX009 (ip), vehicle: Klucel (hydroxypropylcellulose) (HPC)) is 110 % of control; the T/C (dose: 31.25 mg/kg/injection, schedule: Q04DX003 (ip), vehicle: Klucel (hydroxypropylcellulose) (HPC)) was 100 % of control; the T/C (dose: 50.0 mg/kg/injection, schedule: Q01DX009 (ip), vehicle: Klucel (hydroxypropylcellulose) (HPC)) was 110 % of control; the T/C (dose: 62.5 mg/kg/injection, schedule: Q04DX003 (ip), vehicle: Klucel (hydroxypropylcellulose) (HPC)) was 100 % of control; the T/C (dose: 100.0 mg/kg/injection, schedule: Q01DX009 (ip), vehicle: Klucel (hydroxypropylcellulose) (HPC)) is 110 % of control. Moreover, the T/C was 94 % of control (dose: 125.0 mg/kg/injection, schedule: Q04DX003 (ip), vehicle: Klucel (hydroxypropylcellulose) (HPC)); 98 % of control (dose: 200.0 mg/kg/injection, schedule: Q01DX009 (ip), vehicle: Klucel (hydroxypropylcellulose) (HPC)); 102 % of control (dose: 250.0 mg/kg/injection, schedule: Q04DX003 (ip), vehicle: Klucel (hydroxypropylcellulose) (HPC)).

For the compound `Cc1c([N+](=O)[O-])cc(C(C)(C)C)c(O)c1[N+](=O)[O-]`, the T/C reads like this: (dose: 6.25 mg/kg/injection, schedule: Q01DX009 (ip), vehicle: saline with Tween-80) 95 % of control; (dose: 12.5 mg/kg/injection, schedule: Q01DX009 (ip), vehicle: saline with Tween-80) 91 % of control; (dose: 12.5 mg/kg/injection, schedule: Q04DX002 (ip), vehicle: Klucel (hydroxypropylcellulose) (HPC)) 110 % of control; (dose: 25.0 mg/kg/injection, schedule: Q04DX002 (ip), vehicle: Klucel (hydroxypropylcellulose) (HPC)) 112 % of control; (dose: 25.0 mg/kg/injection, schedule: Q04DX002 (ip), vehicle: saline with Tween-80) 89 % of control.

As for `COC1OC2COC(c3ccccc3)OC2C2C1N2C#N` (stereo unspecified), the T/C was 100 % of control (dose: 25.0 mg/kg/injection, schedule: Q01DX001 (ip), vehicle: Klucel (hydroxypropylcellulose) (HPC)); 93 % of control (dose: 50.0 mg/kg/injection, schedule: Q01DX001 (ip), vehicle: Klucel (hydroxypropylcellulose) (HPC)); 100 % of control (dose: 100.0 mg/kg/injection, schedule: Q01DX001 (ip), vehicle: Klucel (hydroxypropylcellulose) (HPC)).

Consider `CCCCCN(CCCCC)CCCNc1c2c(nc3ccc(OC)cc13)CCCC2`, for which the T/C (dose: 2.5 mg/kg/injection, schedule: Q01DX009 (ip), vehicle: saline) is 100 % of control; the T/C (dose: 5.0 mg/kg/injection, schedule: Q01DX001 (ip), vehicle: saline) is 98 % of control; the T/C (dose: 5.0 mg/kg/injection, schedule: Q01DX009 (ip), vehicle: saline) is 104 % of control; the T/C (dose: 9.0 mg/kg/injection, schedule: Q01DX001 (ip), vehicle: saline) was 94 % of control and 102 % of control; the T/C (dose: 10.0 mg/kg/injection, schedule: Q01DX001 (ip), vehicle: saline) was 96 % of control; the T/C (dose: 10.0 mg/kg/injection, schedule: Q01DX009 (ip), vehicle: saline) was 98 % of control. The T/C by setting is: (dose: 13.0 mg/kg/injection, schedule: Q01DX001 (ip), vehicle: saline) 94 % of control; (dose: 14.0 mg/kg/injection, schedule: Q01DX001 (ip), vehicle: saline) 104 % of control; (dose: 20.0 mg/kg/injection, schedule: Q01DX001 (ip), vehicle: saline) 93 % of control and 102 % of control (2×); (dose: 20.0 mg/kg/injection, schedule: Q01DX009 (ip), vehicle: saline) 100 % of control; (dose: 30.0 mg/kg/injection, schedule: Q01DX001 (ip), vehicle: saline) 98 % of control.

As for `CNS(=O)(=O)c1ccc(C(N)=S)cc1`, the T/C (dose: 100.0 mg/kg/injection, schedule: Q01DX001 (ip), vehicle: gum acacia) was 93 % of control; the T/C (dose: 200.0 mg/kg/injection, schedule: Q01DX001 (ip), vehicle: gum acacia) was 106 % of control; the T/C (dose: 400.0 mg/kg/injection, schedule: Q01DX001 (ip), vehicle: gum acacia) is 98 % of control.
